Key:
[1] = UV absorption of the compounds (absorption maximum and specific absorbance); format: physicochemical; settings: for λmax: UV absorption maximum; for E^11: specific absorbance at λmax
[2] = used alone or in combination with UV-B filters; cited from earlier work

Structure (SMILES)	λmax [1]	E^11 [1]	melting point	photochemical stability [2]
CCN(CC)c1ccc(C(=O)c2ccccc2C(=O)OC)c(O)c1 [Example 1, Methyl 2-(4-diethylamino-2-hydroxybenzoyl)benzoate]	354 nm	1173	–	–
CCN(CC)c1ccc(C(=O)c2ccccc2)c(O)c1 [Example 2, 4-diethylamino-2-hydroxyphenyl phenyl ketone]	359 nm	1280	46 to 48 °C	–
O=C(O)c1ccccc1C(=O)c1ccc(N2CCCC2)cc1O [Example 3]	355 nm	1167	203 °C	–
COC(=O)c1ccccc1C(=O)c1ccc(N2CCCC2)cc1O [Example 4]	355 nm	1179	164 °C	–
COc1ccc(C(=O)CC(=O)c2ccc(C(C)(C)C)cc2)cc1 [PARSOL 1789, 4-(1,1-dimethylethyl)-4′-methoxydibenzoylmethane]	–	–	–	does not have sufficient photochemical stability

Reference: US6409995B1, “Use of amino-substituted hydroxybenzophenones as photostable UV filters in cosmetic and pharmaceutical preparations” (BASF Aktiengesellschaft, priority 1999, dated 2002)
